For twelve compounds, logP and solubility results are on record in the OPERA property sets (Mansouri et al. 2018).

Each structure is given as a SMILES string. Converted amounts (≈) assume the structure as drawn.

Settings in the first data set: not given
The term logP denotes the decadic logarithm of the partition coefficient of the neutral form, usually between octanol and water. A high value points to higher lipophilicity. For the compound `Cc1ccc([N+](=O)[O-])c(O)c1`, the logP was 2.31.
Compound `O=Cc1ccc(O)c([N+](=O)[O-])c1` had a logP of 1.48.
For `O=[N+]([O-])c1cc(-c2ccccc2)ccc1O`, the logP stood at 3.71.
For the compound `O=[N+]([O-])c1ccc(F)cc1O`, the logP amounted to 1.91.
Compound `O=[N+]([O-])c1cc(Cl)ccc1O` displayed a log partition coefficient (logP) of 2.46.
`Cc1cc(O)ccc1[N+](=O)[O-]` displayed a logP of 2.48.
Take `COc1ccc(O)c([N+](=O)[O-])c1`: the logP was found to be 2.02.
Still for that read-out and setting: to `O=[N+]([O-])c1cc(C(F)(F)F)ccc1O` belongs 2.34; to `Cc1cccc(O)c1[N+](=O)[O-]`, 2.29; to `Cc1cc(O)c([N+](=O)[O-])cc1Cl`, 2.93.
`CCC(C)c1ccc(O)c([N+](=O)[O-])c1` (stereo not given) yielded a logP of 3.84.

The same data set, now with this note: 20 °C.
For orientation: solubility means the dissolved amount per volume that the medium holds. Low readings indicate little dissolved substance, high ones much dissolved substance. Regarding `O=[N+]([O-])c1ccc(O)cc1`, the solubility is 83400 µM (≈ 11600 µg/mL).
Take `Cc1ccc([N+](=O)[O-])c(O)c1`: the solubility is 1780 µM (≈ 272 µg/mL).
In the case of `O=Cc1ccc(O)c([N+](=O)[O-])c1`, the solubility came out at 1120 µM (≈ 187 µg/mL).
In the case of `O=[N+]([O-])c1cc(-c2ccccc2)ccc1O`, the solubility turned out to be 38.9 µM (≈ 8.37 µg/mL).
With `O=[N+]([O-])c1cc(Cl)ccc1O`, the solubility came out at 812 µM (≈ 141 µg/mL).
In turn, `Cc1cc(O)ccc1[N+](=O)[O-]` gave a solubility of 7760 µM (≈ 1190 µg/mL).
In turn, `COc1ccc(O)c([N+](=O)[O-])c1` registered a solubility of 1450 µM (≈ 245 µg/mL).
Turning to `Cc1cc(O)c([N+](=O)[O-])cc1Cl`, the solubility amounted to 40.7 µM (≈ 7.64 µg/mL).
The compound `CCC(C)c1ccc(O)c([N+](=O)[O-])c1` (stereo not given) gave a solubility of 144 µM (≈ 28.2 µg/mL).
